This note sets out measurements from PMC5358767 (PLoS ONE, 2017).

The subject of one experiment is S. suis. The experiment can be described thus: microbe, parasite or virus in culture. Set-up: species or system Streptococcus suis; microtiter broth dilution MIC of natural products against S. suis. How it is done:
To find potent Ss-SrtA inhibitors, the 11 natural products listed in S1 Table were selected for experimental validation using purified recombinant Ss-SrtA. […] Using the microtiter broth dilution method, we measured the MIC values of all these natural products to be >500 μM (S1 Table). […] S. suis strains were cultured in Todd–Hewitt broth (THB; Oxoid Ltd.) without shaking or Todd–Hewitt broth agar plates at 37°C with 5% CO2. E. coli and S. aureus strains were grown in Luria-Bertani (LB) medium at 37°C with shaking at 200 rpm or plated on LB agar. If required, cultures were supplemented with antibiotics at the following concentrations: erythromycin, 3 μg ml^−1 for S. aureus; ampicillin, 100 μg ml^−1 for E. coli.

The target of the next experiment is T1, Sortase A (Ss-SrtA) (Streptococcus suis, UniProt Q8VUP7).
T1 construct: residues N24-Q235, C-terminal His-tag
Briefly: fluorescence-quenched peptide (abz-LPATG-dnp) hydrolysis assay with recombinant enzyme. Format: biochemical.

In experiment [1] the target is T2, Sortase A (Sa-SrtA) (Staphylococcus aureus, UniProt Q2FV99).
T2 construct: endogenous, S. aureus Newman D2C cells
Briefly: SrtA-dependent fluorescent peptide incorporation in live cells, flow cytometry; […] inhibition at […]. In kind it is cell-based. (A flow cytometer gives signals particle by particle.)

For experiment [2], the target named is T2, Sortase A (Sa-SrtA). The description is as above. Format: cell-based. The source holds these as a separate data set.
Experiment [3] concerns the target T2, Sortase A (Sa-SrtA). The experiment is described as above. In kind it is cell-based. This is another data set of the same source.
In experiment [4] the target is Streptococcus suis sortase A (recombinant, residues N24-Q235 with C-terminal His-tag) (Streptococcus suis).
The mark [5] stands for this setting: Streptococcus suis, read-out: MIC.

Counter-ions that a name gives are not always drawn. Like-named read-outs stand apart in the source and are kept apart here. abz = not defined here; dnp = not defined here

T1 sequence (Q8VUP7 entry or part of it): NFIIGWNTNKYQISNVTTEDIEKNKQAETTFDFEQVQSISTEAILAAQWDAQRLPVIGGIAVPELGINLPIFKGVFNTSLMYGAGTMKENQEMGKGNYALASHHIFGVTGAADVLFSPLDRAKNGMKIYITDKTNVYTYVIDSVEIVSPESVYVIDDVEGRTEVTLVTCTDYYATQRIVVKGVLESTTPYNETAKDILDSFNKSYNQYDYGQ
T2 sequence (Q2FV99 whole entry): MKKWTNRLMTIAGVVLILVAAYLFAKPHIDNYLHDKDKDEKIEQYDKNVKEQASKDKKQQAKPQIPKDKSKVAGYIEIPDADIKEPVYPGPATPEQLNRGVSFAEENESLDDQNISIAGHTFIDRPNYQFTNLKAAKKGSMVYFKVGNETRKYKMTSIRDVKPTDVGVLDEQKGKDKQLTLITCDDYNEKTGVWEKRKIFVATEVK

Turning to `CCCCC[C@H](O)CC(=O)CCc1ccc(O)c(OC)c1` [6-Gingerol], the MIC in the experiment on S. suis (setting [5]) is more than 500 µM.
The same measure, in the same setting: in the case of `O=c1cc(-c2ccccc2)oc2cc(O)c(O)c(O)c12` [Baicalein] it was more than 500 µM.
Same read-out and setting: then `C[C@@H]1O[C@@H](OC[C@H]2O[C@@H](Oc3c(-c4ccc(O)c(O)c4)oc4cc(O)cc(O)c4c3=O)[C@H](O)[C@@H](O)[C@@H]2O)[C@H](O)[C@H](O)[C@H]1O` [Rutin], with more than 500 µM.
Turning to `O=c1cc(-c2ccc(O)cc2)oc2c([C@@H]3O[C@H](CO)[C@@H](O)[C@H](O)[C@H]3O)c(O)cc(O)c12` [Vitexin], the MIC with S. suis (inhibitor) is more than 500 µM.
Take `COc1c(O)cc(O)c2c(=O)cc(-c3ccccc3)oc12` [Wogonin]: the MIC with S. suis (setting [5]) is more than 500 µM.
One may read the IC50 as the point on the concentration scale where inhibition reaches its midpoint. Broadly, the inhibition is the share of the control response that was lost under treatment. Consider `C[C@@H]1O[C@@H](O[C@@H]2[C@@H](O)[C@H](OCCc3ccc(O)c(O)c3)O[C@H](CO)[C@H]2OC(=O)/C=C/c2ccc(O)c(O)c2)[C@H](O)[C@H](O)[C@H]1O` [acteoside], for which the 50% inhibitory concentration (IC50) on Sortase A (Ss-SrtA) amounted to 36.3 ± 1.3 µM. Besides, at Sortase A (Sa-SrtA) [1], at 200 µM the inhibition was 86%. For the same molecule, the MIC in the experiment on S. suis (setting [5]) is more than 500 µM.
With `O=C(O)[C@H]1O[C@@H](Oc2cc3oc(-c4ccccc4)cc(=O)c3c(O)c2O)[C@H](O)[C@@H](O)[C@@H]1O` [baicalin], on Sortase A (Ss-SrtA), the IC50 stood at 85.4 ± 1.5 µM. On Sortase A (Sa-SrtA) [2], this molecule returned an inhibition at 200 µM of 45%. The MIC in the experiment on S. suis (setting [5]) is more than 500 µM.
In the case of `COc1ccc2cc3[n+](cc2c1OC)CCc1cc2c(cc1-3)OCO2` [berberine hydrochloride], the concentration for half-maximal inhibition (IC50) at Sortase A (Ss-SrtA) was less than 100 µM. Further, the MIC with S. suis (setting [5]) was more than 500 µM.
In the same order, the values of `COc1cc(/C=C/C(=O)CC(=O)/C=C/c2ccc(O)c(OC)c2)ccc1O` [curcumin] are less than 100 µM and more than 500 µM.
Consider `O=c1c(O[C@@H]2O[C@H](CO)[C@@H](O)[C@H](O)[C@H]2O)c(-c2ccc(O)c(O)c2)oc2cc(O)cc(O)c12` [isoquercitrin], for which the inhibition at 200 µM at Sortase A (Sa-SrtA) [3] was found to be 28%. Moreover, the MIC in the experiment with S. suis (setting [5]) is more than 500 µM.
For `O=c1c(O)c(-c2ccc(O)c(O)c2)oc2cc(O)cc(O)c12` [quercetin], the IC50 on Sortase A (Ss-SrtA) is less than 100 µM. For the same molecule, the MIC in the experiment with S. suis (setting [5]) is more than 500 µM.
As to abz-LPATG-dnp (reading uncertain; also: printed as abz-LPATG-dnp) [abz-LPATG-dnp (internally quenched fluorescent peptide substrate)], the Km for the hydrolysis of abz-LPATG-dnp by purified Ss-SrtA (fluorescence increase of the quenched peptide; substrate 0.375-64 μM; 50 mM Tris·HCl, 150 mM NaCl, pH 7.5, 37°C) in experiment [4] came out at 6.7 μM.
